MIC data for four compounds are collected here from patent US7247634B2, “Rifamycin derivatives effective against drug-resistant microbes” (Cumbre Pharmaceuticals Inc., priority 2004, dated 2007).

Holding throughout (format): cell-based
The subject of test [1] is Staphylococcus aureus EN1252a gyrA^S84L grlA^S80F. The test can be described thus: microbe, parasite or virus in culture. To be noted: read-out: Antimicrobial activity (MIC). The gist of the method:
(§1)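 Tested organisms were S. aureus ATCC 29213 rpoB mutants (D417Y, H418Y; rifampin-resistant) and double gyrase/topoisomerase IV mutant EN1252a (quinolone-resistant). Growth in cation-adjusted Mueller-Hinton broth at 37 °C; MIC by microbroth dilution per NCCLS guidelines.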

The subject of test [2] is Staphylococcus aureus ATCC29213 rpoB^H418Y. The test can be described thus: microbe, parasite or virus in culture. To be noted: ATCC29213, read-out: Antimicrobial activity (MIC). The method, boiled down:
as §1

The subject of test [3] is Staphylococcus aureus ATCC29213 rpoB^D417Y. The test is described as follows: microbe, parasite or virus in culture. As to conditions: ATCC29213, read-out: Antimicrobial activity (MIC). The gist of the method: as §1
For test [4], the system named is Streptococcus pneumoniae ATCC6303. The test is described as follows: MIC, microbroth dilution (NCCLS). As to conditions: rifS strain, THY Broth with 1 mg/mL catalase, 5% CO2, 37° C., read-out: Antimicrobial activity (MIC). A general note: Broth dilution looks for growth in wells or tubes with falling amounts of substance.
Test [5] has as its system Staphylococcus epidermidis ATCC12228. The test can be described thus: MIC, microbroth dilution (NCCLS). To be noted: rifS strain, Cation-Adjusted Mueller-Hinton Broth, 37° C., read-out: Antimicrobial activity (MIC).
Test [6] has as its system Haemophilus influenzae ATCC10211. The test can be described thus: MIC, microbroth dilution (NCCLS). To be noted: rifS strain, BHI Broth with NAD and hematin, 37° C., read-out: Antimicrobial activity (MIC).
Test [7] relates to Enterococcus faecalis ATCC29212. The test can be described thus: MIC, microbroth dilution (NCCLS). As to conditions: rifS strain, BHI Broth, 37° C., read-out: Antimicrobial activity (MIC).
In test [8] the test system is Escherichia coli ATCC25922. The test is described as follows: MIC, microbroth dilution (NCCLS). To be noted: rifS strain, Cation-Adjusted Mueller-Hinton Broth, 37° C., read-out: Antimicrobial activity (MIC).
In test [9] the test system is Staphylococcus aureus ATCC29213. The test is described as follows: MIC, microbroth dilution (NCCLS). To be noted: rifS strain, Cation-Adjusted Mueller-Hinton Broth, 37° C., read-out: Antimicrobial activity (MIC).
Test [10] relates to Mycobacterium smegmatis ATCC700084. The test can be described thus: MIC, microbroth dilution (NCCLS). As to conditions: Mycolicibacterium smegmatis, rifS strain, Middlebrook Broth plus ADC Enrichment, 37° C., read-out: Antimicrobial activity (MIC).
Test [11] has as its system Streptococcus pyogenes ATCC19615. The test is described as follows: MIC, microbroth dilution (NCCLS). As to conditions: rifS strain, THY Broth, 37° C., read-out: Antimicrobial activity (MIC).

Structures are written as SMILES. Values after ≈ are worked out from the molar mass of the structure shown.

For the compound `COc1c(N2CC(NC(=O)C3CN(C4=C5NC(=O)/C(C)=C\C=C\[C@H](C)[C@H](O)[C@@H](C)[C@@H](O)[C@@H](C)[C@H](OC(C)=O)[C@H](C)[C@@H](OC)/C=C/O[C@@]6(C)Oc7c(C)c(O)c(c(c7C6=O)C4=O)C5=O)C3)C2)c(F)cc2c(=O)c(C(=O)O)cn(C3CC3)c12` [Example 47, 3-{3-[1-(3-Carboxy-1-cyclopropyl-6-fluoro-8-methoxy-4-oxo-1,4-dihydroquinolin-7-yl)-azetidin-3-ylcarbamoyl]-azetidin-1-yl}rifamycin S], the MIC in test [1] was in the range of 0.004 to 0.5 µg/mL (≈ 0.00356 to 0.445 µM); in test [2], 0.06 to 16 µg/mL (≈ 0.0534 to 14.2 µM); in test [3] it was 0.06 to 32 µg/mL (≈ 0.0534 to 28.5 µM); in test [4], 0.008 to 0.125 µg/mL (≈ 0.00712 to 0.111 µM); in test [5], 0.008 to 0.063 µg/mL (≈ 0.00712 to 0.056 µM); in test [6] it was 0.125 to 2 µg/mL (≈ 0.111 to 1.78 µM). Besides, the MIC was 2 to 32 µg/mL (≈ 1.78 to 28.5 µM) in test [7]; 0.125 to 8 µg/mL (≈ 0.111 to 7.12 µM) in test [8]; 0.004 to 0.5 µg/mL (≈ 0.00356 to 0.445 µM) in test [9]; 0.5 to 64 µg/mL in test [10]; 0.008 to 0.063 µg/mL (≈ 0.00712 to 0.056 µM) in [11].

As for `CON=C1CN(c2nc3c(cc2F)c(=O)c(C(=O)O)cn3C2CC2)CC1CNC1CCN(C2=C3NC(=O)/C(C)=C\C=C\[C@H](C)[C@H](O)[C@@H](C)[C@@H](O)[C@@H](C)[C@H](OC(C)=O)[C@H](C)[C@@H](OC)/C=C/O[C@@]4(C)Oc5c(C)c(O)c(c(c5C4=O)C2=O)C3=O)CC1` (mixture of isomers) [Example 59, (R/S)-3-{4-[1-(3-Carboxy-1-cyclopropyl-6-fluoro-4-oxo-1,4-dihydro-1-[1,8]naphthyridine-7-yl)-3-methoxyiminopyrrolidin-4-ylmethylamino]-piperidin-1-yl}rifamycin S], the MIC lay within 0.004 to 0.5 µg/mL (≈ 0.00343 to 0.429 µM) in test [1]; 0.06 to 16 µg/mL (≈ 0.0514 to 13.7 µM) in test [2]; 0.06 to 32 µg/mL (≈ 0.0514 to 27.4 µM) in [3]; 0.008 to 0.125 µg/mL (≈ 0.00686 to 0.107 µM) in test [4]; 0.008 to 0.063 µg/mL (≈ 0.00686 to 0.054 µM) in test [5]; 0.125 to 2 µg/mL (≈ 0.107 to 1.71 µM) in [6]. Further, the MIC in test [7] was in the range of 2 to 32 µg/mL (≈ 1.71 to 27.4 µM); in [8], 0.125 to 8 µg/mL (≈ 0.107 to 6.86 µM); in test [9], 0.004 to 0.5 µg/mL (≈ 0.00343 to 0.429 µM); in test [10] it was 0.5 to 64 µg/mL; in [11], 0.008 to 0.063 µg/mL (≈ 0.00686 to 0.054 µM).

Turning to `COc1c(N2CCC(NC3=C4NC(=O)/C(C)=C\C=C\[C@H](C)[C@H](O)[C@@H](C)[C@@H](O)[C@@H](C)[C@H](OC(C)=O)[C@H](C)[C@@H](OC)/C=C/O[C@@]5(C)Oc6c(C)c(O)c(c(c6C5=O)C3=O)C4=O)C2)c(F)cc2c(=O)c(C(=O)O)cn(C3CC3)c12` (mixture of isomers) [Example 27], the MIC was 0.004 to 0.5 µg/mL (≈ 0.00379 to 0.474 µM) in test [1]; 0.06 to 16 µg/mL (≈ 0.0569 to 15.2 µM) in test [2]; 0.06 to 32 µg/mL (≈ 0.0569 to 30.3 µM) in test [3]; 0.008 to 0.125 µg/mL (≈ 0.00758 to 0.118 µM) in test [4]; 0.008 to 0.063 µg/mL (≈ 0.00758 to 0.0597 µM) in [5]; 0.125 to 2 µg/mL (≈ 0.118 to 1.9 µM) in [6]. In addition, the MIC in test [7] was 2 to 32 µg/mL (≈ 1.9 to 30.3 µM); in test [8], 0.125 to 8 µg/mL (≈ 0.118 to 7.58 µM); in test [9], 0.004 to 0.5 µg/mL (≈ 0.00379 to 0.474 µM); in test [10], 0.5 to 64 µg/mL; in test [11], 0.008 to 0.063 µg/mL (≈ 0.00758 to 0.0597 µM).

`COc1c(N2CCC(C3(N4CCN(C5=C6NC(=O)/C(C)=C\C=C\[C@H](C)[C@H](O)[C@@H](C)[C@@H](O)[C@@H](C)[C@H](OC(C)=O)[C@H](C)[C@@H](OC)/C=C/O[C@@]7(C)Oc8c(C)c(O)c(c(c8C7=O)C5=O)C6=O)CC4)CC3)C2)c(F)cc2c(=O)c(C(=O)O)cn(C3CC3)c12` (mixture of isomers) [Example 56, (R/S)-3-{4-[1-(3-Carboxy-1-cyclopropyl-6-fluoro-8-methoxy-4-oxo-1,4-dihydroquinoline-7-yl)-pyrrolidin-3-yl-cyclopropyl]-piperazin-1-yl}-rifamycin S]: the MIC fell in the range of 0.004 to 0.5 µg/mL (≈ 0.00344 to 0.429 µM) in test [1]; 0.06 to 16 µg/mL (≈ 0.0515 to 13.7 µM) in test [2]; 0.06 to 32 µg/mL (≈ 0.0515 to 27.5 µM) in [3]; 0.008 to 0.125 µg/mL (≈ 0.00687 to 0.107 µM) in test [4]; 0.008 to 0.063 µg/mL (≈ 0.00687 to 0.0541 µM) in [5]; 0.125 to 2 µg/mL (≈ 0.107 to 1.72 µM) in test [6]. Moreover, the MIC in [7] was in the range of 2 to 32 µg/mL (≈ 1.72 to 27.5 µM); in test [8] it was 0.125 to 8 µg/mL (≈ 0.107 to 6.87 µM); in test [9], 0.004 to 0.5 µg/mL (≈ 0.00344 to 0.429 µM); in [10], 0.5 to 64 µg/mL; in test [11], 0.008 to 0.063 µg/mL (≈ 0.00687 to 0.0541 µM).
